From patent US10065990B2, “Cyclic peptide compound, and preparation method, pharmaceutical composition and use thereof” (HANGZHOU GUANYU BIO-MEDICAL CO., LTD, priority 2013, dated 2018)
Where two headings read alike, the source gives them in different places.

Tests used:
[1] = test system: KBM5-T315I (human chronic myelogenous leukemia); test: MTT cancer cell growth inhibition; type: cell-based; conditions: Homo sapiens, 72 h, MTT, 72 hours incubation, KBM5-T315I cells; read-out: GI50 KBM5-T315I
Description: (§1) MTT assay principle is yellow MTT can penetrate membrane into the cell, succinic dehydrogenase of the mitochondria in living cells can make exogenous MTT reduction of insoluble in water of blue-violet acicular formazan for crystallization and deposition in the cell, crystallization can be dissolved dimethyl sulfoxide (DMSO) solution, detected its absorbance at 490 nm/570 nm wavelength by enzyme-linked immunosorbent assay, which can reflect the number of cells.
(§2) Using DMEM+10% FBS culture medium or using 1640+10% FBS culture, respectively.
(§3) a) Cells were seeded in 96-well plates with the inoculation of 1500/well, 190 μl/hole, 37° C., 5% of CO2 incubator overnight;
(§4) b) The next day each well was added 10 μl of different drugs. The final concentration of drug was 10^−5˜10^−10M, three parallel holes; 37° C., 5% CO2 culture incubator for 72 hours incubation;
(§5) c) Per well was added 20 μl 5 mg/ml of MTT, 37° C., 5% CO2 culture incubator for 4 hours incubation;
(§6) d) The supernatant was discarded. Each well was added 100 μl of DMSO and oscillation;
(§7) e) 570 nm readings. Calculate cell viability. GI50 calculation based on the results.

[2] = test system: lncap (prostate cancer cells); test: MTT cancer cell growth inhibition; type: cell-based; conditions: Homo sapiens, LNCaP, 72 h, MTT, 72 hours incubation, read-out: GI50 lnca
Description: as §1, §2, §3, §4, §5, §6, §7

[3] = test system: BGC-823 (human gastric cancer cells); test: MTT cancer cell growth inhibition; type: cell-based; conditions: Homo sapiens, BGC-823, 72 h, MTT, 72 hours incubation, read-out: GI50 BG
Description: as §1, §2, §3, §4, §5, §6, §7

[4] = test system: K562 (human leukemia cells); test: MTT cancer cell growth inhibition; type: cell-based; conditions: Homo sapiens, K562, 72 h, MTT, 72 hours incubation, K562 cells; read-out: GI50 K562
Description: as §1, §2, §3, §4, §5, §6, §7

[5] = test system: HCC827 (human non-small cell lung cancer cells); test: MTT cancer cell growth inhibition; type: cell-based; conditions: Homo sapiens, HCC827, 72 h, MTT, 72 hours incubation, HCC827 cells; read-out: GI50 HCC827
Description: as §1, §2, §3, §4, §5, §6, §7

[6] = test system: Hela (human cervical cancer cells); test: MTT cancer cell growth inhibition; type: cell-based; conditions: Homo sapiens, HeLa, 72 h, MTT, 72 hours incubation, read-out: GI50 Hela
Description: as §1, §2, §3, §4, §5, §6, §7

[7] = test system: Bel-7402 (human hepatoma cells); test: MTT cancer cell growth inhibition; type: cell-based; conditions: Homo sapiens, Bel-7402, 72 h, MTT, 72 hours incubation, Bel-7402 cells; read-out: GI50 Bel-7402
Description: as §1, §2, §3, §4, §5, §6, §7

[8] = test system: MDA-MB-231 (breast cancer cells); test: MTT cancer cell growth inhibition; type: cell-based; conditions: Homo sapiens, MDA-MB-231, 72 h, read-out: GI50 MDA-MB-231, MTT, 72 hours incubation, MDA-MB-231 cells
Description: as §1, §2, §3, §4, §5, §6, §7

[9] = test system: MOLT-4 (human acute lymphoblastic leukemia cells); test: MTT cancer cell growth inhibition; type: cell-based; conditions: Homo sapiens, MOLT-4, 72 h, MTT, 72 hours incubation, read-out: GI50 Mol
Description: as §1, §2, §3, §4, §5, §6, §7

[10] = test system: KBM-5 (human chronic myelogenous leukemia); test: MTT cancer cell growth inhibition; type: cell-based; conditions: Homo sapiens, KBM5, 72 h, MTT, 72 hours incubation, KBM-5 cells; read-out: GI50 KBM-5
Description: as §1, §2, §3, §4, §5, §6, §7

[11] = test system: U937 (human leukemia cells); test: MTT cancer cell growth inhibition; type: cell-based; conditions: Homo sapiens, U-937, 72 h, MTT, 72 hours incubation, read-out: GI50 U93
Description: as §1, §2, §3, §4, §5, §6, §7

[12] = test system: N-87 (human gastric cancer cells); test: MTT cancer cell growth inhibition; type: cell-based; conditions: Homo sapiens, 72 h, MTT, 72 hours incubation, N-87 cells; read-out: GI50 N-87
Description: as §1, §2, §3, §4, §5, §6, §7

[13] = test system: PANC-1 (Pac-1, human pancreatic cancer cells); test: MTT cancer cell growth inhibition; type: cell-based; conditions: Homo sapiens, PANC-1, 72 h, MTT, 72 hours incubation, read-out: GI50 PAN
Description: as §1, §2, §3, §4, §5, §6, §7

[14] = test system: Huh-7 (human hepatoma cells); test: MTT cancer cell growth inhibition; type: cell-based; conditions: Homo sapiens, Huh-7, 72 h, MTT, 72 hours incubation, Huh-7 cells; read-out: GI50 Huh-7
Description: as §1, §2, §3, §4, §5, §6, §7

[15] = test system: MCF-7 (human breast cancer cells); test: MTT cancer cell growth inhibition; type: cell-based; conditions: Homo sapiens, MCF7, 72 h, 72 hours incubation, read-out: GI50 MCF
Description: as §1, §2, §3, §4, §5, §6, §7

[16] = test system: HT1080 (human fibrosarcoma cells); test: MTT cancer cell growth inhibition; type: cell-based; conditions: Homo sapiens, HT-1080, 72 h, MTT, 72 hours incubation, read-out: GI50 HT1
Description: as §1, §2, §3, §4, §5, §6, §7

[17] = test system: DU145 (human prostate cancer cells); test: MTT cancer cell growth inhibition; type: cell-based; conditions: Homo sapiens, DU-145, 72 h, MTT, 72 hours incubation, read-out: GI50 Du1
Description: as §1, §2, §3, §4, §5, §6, §7

[18] = test system: SGC-7901 (human gastric cancer cells); test: MTT cancer cell growth inhibition; type: cell-based; conditions: Homo sapiens, SGC-7901, 72 h, MTT, 72 hours incubation, SGC-7901 cells; read-out: GI50 SGC-7901
Description: as §1, §2, §3, §4, §5, §6, §7

[19] = test system: A549 (human lung cancer cells); test: MTT cancer cell growth inhibition; type: cell-based; conditions: Homo sapiens, A549, 72 h, MTT, 72 hours incubation, read-out: GI50 A54
Description: as §1, §2, §3, §4, §5, §6, §7

[20] = test system: H1975 (non-small cell lung adenocarcinoma); test: MTT cancer cell growth inhibition; type: cell-based; conditions: Homo sapiens, NCI-H1975, 72 h, MTT, 72 hours incubation, H1975 cells; read-out: GI50 H1975
Description: as §1, §2, §3, §4, §5, §6, §7

HDAC7 = molecular target: T1, HDAC7 (Homo sapiens, UniProt Q8WUI4); test: HDAC biochemical activity measurement (fluorescent substrate deacetylation);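 further: fluorogenic deacetylation assay using acetyl-lysine substrate at 20 µM, enzyme and compound incubated 30 min at 37 °C, then developer added, fluorescence read at 360/460 nm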; conditions: HDAC7; 37° C. 30 minutes
T1 sequence (Q8WUI4 1-952): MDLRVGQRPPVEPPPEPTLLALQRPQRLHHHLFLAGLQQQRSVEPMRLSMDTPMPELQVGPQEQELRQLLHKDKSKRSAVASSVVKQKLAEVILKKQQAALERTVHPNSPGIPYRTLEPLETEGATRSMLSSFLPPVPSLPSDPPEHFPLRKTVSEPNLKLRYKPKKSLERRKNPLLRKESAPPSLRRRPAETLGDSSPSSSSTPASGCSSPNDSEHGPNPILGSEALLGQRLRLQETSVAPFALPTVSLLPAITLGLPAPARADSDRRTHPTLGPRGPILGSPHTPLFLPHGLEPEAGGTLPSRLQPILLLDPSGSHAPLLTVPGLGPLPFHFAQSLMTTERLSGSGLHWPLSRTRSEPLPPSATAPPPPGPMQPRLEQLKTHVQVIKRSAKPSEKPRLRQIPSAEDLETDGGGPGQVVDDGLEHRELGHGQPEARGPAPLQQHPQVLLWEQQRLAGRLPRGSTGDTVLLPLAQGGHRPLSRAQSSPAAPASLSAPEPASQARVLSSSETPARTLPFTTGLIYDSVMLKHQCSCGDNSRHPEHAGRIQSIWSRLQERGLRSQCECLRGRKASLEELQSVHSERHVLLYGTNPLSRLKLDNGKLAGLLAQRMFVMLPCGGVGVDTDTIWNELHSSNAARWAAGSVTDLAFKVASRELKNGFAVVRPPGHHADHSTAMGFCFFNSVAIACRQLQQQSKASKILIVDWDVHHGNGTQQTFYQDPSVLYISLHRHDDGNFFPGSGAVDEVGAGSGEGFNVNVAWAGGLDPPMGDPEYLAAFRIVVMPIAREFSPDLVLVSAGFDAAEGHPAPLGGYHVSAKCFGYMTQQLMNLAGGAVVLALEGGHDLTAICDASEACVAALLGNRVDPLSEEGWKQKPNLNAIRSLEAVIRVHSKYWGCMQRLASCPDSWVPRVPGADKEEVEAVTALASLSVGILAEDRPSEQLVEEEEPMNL

SMILES | GI50 [1] [nM] | GI50 [4] [nM] | GI50 [5] [nM] | GI50 [7] [nM] | GI50 [8] [nM] | GI50 [10] [nM] | GI50 [12] [nM] | GI50 [14] [nM] | GI50 [18] [nM] | GI50 [20] [nM] | IC50 HDAC7 (HDAC7) | GI50 ([2]; lncap cells) [nM] | GI50 ([3]; BGC-823 cells) [nM] | GI50 ([6]; Hela cells) [nM] | GI50 ([9]; MOLT-4 cells) [nM] | GI50 ([11]; U937 cells) [nM] | GI50 ([13]; PANC-1 cells) [nM] | GI50 ([15]; MCF-7 cells) [nM] | GI50 ([16]; HT1080 cells) [nM] | GI50 ([17]; DU145 cells) [nM] | other results
C/C=C1\NC(=O)c2cc(F)cc(n2)CNC(=O)C[C@@H](/C=C/CCSC(=O)CCCCC)OC(=O)[C@H](C(C)C)NC1=O [Example 37] | 62 | 37 | 34 | 34 | 38 | 53 | 41 | 38 | 51 | 27 | no activity |  |  |  |  |  |  |  |  |  | GI50 [2]: 30 nM; GI50 [3]: 40 nM; GI50 [6]: 50 nM; GI50 [9]: 30 nM; GI50 [11]: 20 nM; GI50 [13]: 30 nM; GI50 [15]: 60 nM; GI50 [16]: 30 nM; GI50 [17]: 30 nM; GI50 [19]: 50 nM
C/C=C1\NC(=O)c2ccc(SC)c(n2)CNC(=O)C[C@@H](/C=C/CCSC(C)=O)OC(=O)[C@@H](C)NC1=O [Compound 222] | 35 | 83 | 63 | 14 | 52 | 43 | 98 | 39 | 47 | 83 | no activity | 60 | 40 | 20 | 30 | 80 | 30 | 70 | 70 | 30 | GI50 ([19]; A549 cells): 50 nM
C/C=C1\NC(=O)c2cc(SC)cc(n2)CNC(=O)C[C@@H](/C=C/CCSC(C)=O)OC(=O)[C@H](Cc2cccc3ccccc23)NC1=O [Compound 199] | 29 | 81 | 47 | 42 | 51 | 17 | 27 | 35 | 67 | 78 | no activity | 40 | 90 | 30 | 30 | 30 | 10 | 80 | 40 | 50 | GI50 ([19]; A549 cells): 40 nM
C/C=C1\NC(=O)c2cc(SC)cc(n2)CNC(=O)C[C@@H](/C=C/CCSC(=O)CCCCC)OC(=O)[C@H](C(C)C)NC1=O [Compound 154] | 71 | 28 | 75 | 53 | 53 | 29 | 63 | 47 | 12 | 38 | no activity | 40 | 40 | 40 | 90 | 40 | 40 | 50 | 90 | 50 | GI50 ([19]; A549 cells): 40 nM
